The values that follow come from US6369088B2, “Substituted 3-phenyl-5-alkoxy-1,3,4-oxadiazol-2-ones, their preparation and their use as pharmaceuticals” (Aventis Pharma Deutschland GmbH, priority 2000, dated 2002).

Data set [1] addresses T1, hormone-sensitive lipase (HSL) (Rattus norvegicus, UniProt P15304).
T1 construct: Isolated rat fat cells were obtained from epididymal adipose tissue; from tissue; host or cells: rat epididymal adipose tissue (isolated fat cells, Wistar rats)
T1 sequence (P15304 1-768 isoform P15304-2): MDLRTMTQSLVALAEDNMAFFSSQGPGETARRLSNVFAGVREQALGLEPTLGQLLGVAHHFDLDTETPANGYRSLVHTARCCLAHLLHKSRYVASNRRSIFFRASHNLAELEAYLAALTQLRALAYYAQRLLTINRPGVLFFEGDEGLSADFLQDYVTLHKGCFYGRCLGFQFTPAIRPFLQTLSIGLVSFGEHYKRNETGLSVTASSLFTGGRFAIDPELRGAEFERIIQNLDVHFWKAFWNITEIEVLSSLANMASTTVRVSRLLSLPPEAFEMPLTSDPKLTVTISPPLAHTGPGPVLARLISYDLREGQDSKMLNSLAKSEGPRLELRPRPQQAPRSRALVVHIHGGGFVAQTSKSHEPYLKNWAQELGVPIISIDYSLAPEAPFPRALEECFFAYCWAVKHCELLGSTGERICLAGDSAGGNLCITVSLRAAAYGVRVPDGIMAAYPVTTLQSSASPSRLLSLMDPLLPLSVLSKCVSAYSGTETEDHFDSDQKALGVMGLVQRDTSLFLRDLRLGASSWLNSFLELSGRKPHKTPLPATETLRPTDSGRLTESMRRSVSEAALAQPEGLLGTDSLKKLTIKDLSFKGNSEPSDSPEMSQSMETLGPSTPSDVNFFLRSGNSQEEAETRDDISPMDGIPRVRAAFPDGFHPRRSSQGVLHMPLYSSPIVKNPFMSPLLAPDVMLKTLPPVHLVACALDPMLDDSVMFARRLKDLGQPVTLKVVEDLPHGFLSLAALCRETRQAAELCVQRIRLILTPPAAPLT
The data set can be described thus: HSL enzyme assay: [3H]trioleoylglycerol hydrolysis by partially purified HSL. Type of data set: biochemical. Conditions: partially purified HSL from rat fat cells; [3H]trioleoylglycerol substrate; 37° C., 30 min; read-out: IC50. As for the experimental part: The effect of the compounds of the invention on HSL was tested using the following enzyme assay system:
Preparation of Partially Purified HSL:
The fat cells from 10 rats were washed three times by flotation with 50 ml each time of homogenization buffer ([…] tris/HCl, pH 7.4, 0.25 M sucrose, 1 mM EDTA, 1 mM DTT, 10 μg/ml leupeptin, 10 μg/ml antipain, 20 μg/ml pepstatin) and finally taken up in 10 ml of homogenization buffer. The fat cells were homogenized in a Teflon-in-glass homogenizer (Braun-Melsungen) by 10 strokes at 1500 rpm and 15° C. The homogenate was centrifuged (Sorvall SM24 tubes, 5000 rpm, 10 min, 4° C.). The subnatant between the fatty layer at the top and the pellet was removed and the centrifugation was repeated. The subnatant resulting therefrom was recentrifuged (Sorvall SM24 tubes, 20000 rpm, 45 min, 4° C.). […] After the mixture had been incubated at 4° C. for 60 min (shaking at 15-min intervals), it was centrifuged (Sorvall SM24 tubes, 3000 rpm, 10 min, 4° C.). The supernatant was adjusted to pH 5.2 by adding glacial acetic acid and incubated at 4° C. for 30 min. The precipitates were collected by centrifugation (Sorvall SS34, 12000 rpm, 10 min, 4° C.) and suspended in 2.5 ml of 20 mM tris/HCl, pH 7.0,1 mM EDTA, 65 mM NaCl, 13% sucrose, 1 mM DTT, 10 μg/ml leupeptin/pepstatin/antipain. The suspension was dialyzed against 25 mM tris/HCl, pH 7.4, 50% glycerol, 1 mM DTT, 10 μg/ml leupeptin, pepstatin, antipain at 4° C. overnight and then loaded onto a hydroxy apatite column (0.1 g per 1 ml of suspension, equilibrated with 10 mM potassium phosphate, pH 7.0, 30% glycerol, 1 mM DTT). The column was washed with four volumes of equilibration buffer at a flow rate of 20 to 30 ml/h. The HSL was eluted with one volume of equilibration buffer containing 0.5 M potassium phosphate, and then dialyzed (see above) and concentrated 5- to 10-fold by ultrafiltration (Amicon Diaflo PM 10 filter) at 4° C. The partially purified HSL can be stored at −70° C. for 4 to 6 weeks.
To prepare the substrate, 25-50 μCi of [^3H]trioleoylglycerol (in toluene), 6.8 μmol of unlabeled trioleoylglycerol and 0.6 mg of phospholipids (phosphatidylcholine/phosphatidylinositol 3:1 w/v) were mixed, dried with N2 and then taken up in 2 ml of 0.1 M KPi (pH 7.0) by ultrasonic treatment (Branson 250, microtip, setting 1-2, 2×1 min at 1-min intervals). After addition of 1 ml of KPi and renewed ultrasonic treatment (4×30 sec on ice in 30-sec intervals), 1 ml of 20% BSA (in KPi) was added (final concentration of trioleoylglycerol 1.7 mM). For the reaction, 100 μl of substrate solution were pipetted into 100 μl of HSL solution (HSL prepared as above, diluted in 20 mM KPi, pH 7.0, 1 mM EDTA, 1 mM DTT, 0.02% BSA, 20 μg/ml pepstatin, 10 μg/ml leupeptin) and incubated at 37° C. for 30 min. […] After phase separation, one equivalent of the upper phase (1 ml) was removed and the radioactivity was determined by liquid scintillation measurement.
Substances were normally tested in four independent mixtures. The inhibition of the HSL enzymatic activity by a test substance was determined by comparison with an uninhibited control reaction. The IC50 was calculated via an inhibition plot with at least 10 concentrations of the test substance. The data was analyzed using the software package GRAPHIT, Elsevier-BIOSOFT.

Each structure is given as a SMILES string.

`COc1nn(-c2ccc(NS(=O)(=O)C=Cc3ccccc3)c(C)c2)c(=O)o1` [Example 39, 5-Methoxy-3-(4-(2-phenylethenylsulfonylamino)-3-methylphenyl)-3H-(1,3,4)oxadiazol-2-one] yielded a melting point of 129 °C. The IC50 in data set [1] turned out to be 1000 nM.
With `COc1nn(-c2ccc(NC(=O)Nc3ccc(Cl)c(Cl)c3)c(C)c2)c(=O)o1` [Example 42, 5-Methoxy-3-(4-(3,4-dichlorophenylaminocarbonylamino)-3-methylphenyl)-3H-(1,3,4)oxadiazol-2-one], the melting point was 210 °C. Also, the IC50 in data set [1] turned out to be 1000 nM.
In the case of `COc1nn(-c2ccc(NC(C)=CC(C)=O)c(C)c2)c(=O)o1` [Example 53, 5-Methoxy-3-(4-(4-oxopent-2-en-2-ylamino)-3-methylphenyl)-3H-(1,3,4)oxadiazol-2-one], the melting point came out at 143 °C. Moreover, the IC50 in data set [1] is 1000 nM.
For `COc1nn(-c2ccc(NC(=O)OCc3ccccc3Cl)c(C)c2)c(=O)o1` [Example 62, 5-Methoxy-3-(3-methyl-4-(2-chlorobenzyloxycarbonylamino)phenyl)-3H-(1,3,4)oxadiazol-2-one], in that order: 161 °C and 300 nM.
For `COc1nn(-c2ccc(NC(=O)OCc3ccccc3)cc2C)c(=O)o1` [Example 65, 5-Methoxy-3-(2-methyl-4-benzyloxycarbonylaminophenyl)-3H-(1,3,4)oxadiazol-2-one], the melting point was determined as 112 °C. For the same compound, in data set [1], the concentration for half-maximal inhibition (IC50) is 1000 nM.
On to `CCCCCCCc1ccc(C(=O)Nc2ccc(-n3nc(OC)oc3=O)c(Cl)c2)cc1` [Example 71, 5-Methoxy-3-(2-chloro-4-(4-heptylbenzoylamino)phenyl)-3H-(1,3,4)oxadiazol-2-one], for which the melting point came to 135 °C. Besides, the IC50 in data set [1] was 20 nM.
For `CCOc1nn(-c2ccc(NC(=O)OCc3ccccc3)c(C)c2)c(=O)o1` [Example 74, 5-Ethoxy-3-(3-methyl-4-benzyloxycarbonylaminophenyl)-3H-(1,3,4)oxadiazol-2-one], in that order: 94 °C and 40 nM.

The term IC50 denotes the point on the concentration scale where inhibition reaches its midpoint. By melting point is commonly meant the temperature of the solid-liquid transition.
